ChEMBL document CHEMBL3994568 (2016)
In brackets after ≈: the same amount, converted by molar mass. Activity calls are given as the source filed them. No cut-off for these calls is given here.

Assays:
Pseudomonas aeruginosa = test: Antibacterial activity against Pseudomonas aeruginosa ATCC 27853 after 24 hrs by two-fold microbroth dilution method; assay type: functional; conditions: ATCC 27853, 24 h
Bacillus spizizenii = test: Antibacterial activity against Bacillus subtilis ATCC 6633 after 24 hrs by two-fold microbroth dilution method; assay type: functional; conditions: ATCC 6633, 24 h
Bos taurus [1] = species on record: Bos taurus; test: Binding affinity to calf thymus DNA assessed as hypochromic effect by UV-vis absorption spectra analysis
Micrococcus luteus = test: Antibacterial activity against Micrococcus luteus ATCC 4698 after 24 hrs by two-fold microbroth dilution method; assay type: functional; conditions: NCTC 2665, 24 h
Pichia norvegensis = test: Antifungal activity against Candida mycoderma ATCC 9888 after 24 hrs by two-fold microbroth dilution method; assay type: functional; conditions: ATCC 9888, 24 h
HEp-2 = test: Cytotoxicity against human Hep2 cells assessed as cell viability up to 125 ug/ml after 24 hrs by CCK8 assay relative to control; assay type: functional
Staphylococcus aureus [2] = test: Potency index, ratio of chloromycin MIC to compound MIC for methicillin-resistant Staphylococcus aureus N315; assay type: functional
Escherichia coli = test: Antibacterial activity against Escherichia coli JM109 after 24 hrs by two-fold microbroth dilution method; assay type: functional; conditions: JM109, 24 h
Staphylococcus aureus [3] = test: Antibacterial activity against Staphylococcus aureus ATCC 25923 after 24 hrs by two-fold microbroth dilution method; assay type: functional; conditions: ATCC 25923, 24 h
Bos taurus [4] = species on record: Bos taurus; test: Induction of calf thymus DNA intercalation assessed as inhibition of neutral red binding to DNA by UV-vis absorption spectra analysis
Candida albicans = test: Antifungal activity against Candida albicans ATCC 10231 after 24 hrs by two-fold microbroth dilution method; assay type: functional; conditions: ATCC 10231, 24 h
Cyberlindnera jadinii = test: Antifungal activity against Candida utilis ATCC 9950 after 24 hrs by two-fold microbroth dilution method; assay type: functional; conditions: Williopsis jadinii, ATCC 9950, 24 h
Bacillus = test: Antibacterial activity against Bacillus proteus ATCC 13315 after 24 hrs by two-fold microbroth dilution method; assay type: functional; conditions: ATCC 13315, 24 h
Staphylococcus aureus [5] = test: Potency index, ratio of norfloxacin MIC to compound MIC for methicillin-resistant Staphylococcus aureus N315; assay type: functional
Bos taurus [6] = species on record: Bos taurus; test: Induction of calf thymus DNA intercalation assessed as compound-DNA complex formation at 5 x 10^-5mol/L by fluorescence spectroscopic method
Aspergillus flavus = test: Antifungal activity against Aspergillus flavus ATCC 204304 after 24 hrs by two-fold microbroth dilution method; assay type: functional; conditions: ATCC 204304, 24 h
[7] = Antibacterial activity against Eberthella typhosa ATCC 14028 after 24 hrs by two-fold microbroth dilution method; assay type: functional; conditions: ATCC 14028, 24 h
Bos taurus [8] = species on record: Bos taurus; test: Binding affinity to calf thymus DNA by UV-vis absorption spectra analysis
Saccharomyces cerevisiae = test: Antifungal activity against Saccharomyces cerevisiae ATCC 9763 after 24 hrs by two-fold microbroth dilution method; assay type: functional; conditions: ATCC 9763, 24 h
Staphylococcus aureus [9] = test: Antibacterial activity against methicillin-resistant Staphylococcus aureus N315 after 24 hrs by two-fold microbroth dilution method; assay type: functional; conditions: N315, 24 h

SMILES: CCCCCCCn1c2ccc(-c3csc(N)n3)cc2c2cc(-c3csc(N)n3)ccc21
- MIC (Pseudomonas aeruginosa): 128 µg/mL (≈ 277 µM)
- MIC (Bacillus spizizenii): 256 µg/mL (≈ 555 µM)
- Activity (Bos taurus [1]): Dose-dependent effect
- MIC (Micrococcus luteus): 64 µg/mL (≈ 139 µM)
- MIC (Pichia norvegensis): 64 µg/mL (≈ 139 µM)
- Activity (HEp-2): 85%
- Ratio (Staphylococcus aureus [2]): 16
- MIC (Escherichia coli): 128 µg/mL (≈ 277 µM)
- MIC (Staphylococcus aureus [3]): 16 µg/mL (≈ 34.7 µM)
- inhibition (Bos taurus [4]): Dose-dependent effect
- MIC (Candida albicans): 128 µg/mL (≈ 277 µM)
- MIC (Cyberlindnera jadinii): 256 µg/mL (≈ 555 µM)
- MIC (Bacillus): 256 µg/mL (≈ 555 µM)
- Ratio (Staphylococcus aureus [5]): 2
- Activity (Bos taurus [6]): Active
- MIC (Aspergillus flavus): 256 µg/mL (≈ 555 µM)
- MIC [7]: 128 µg/mL (≈ 277 µM)
- K (Bos taurus [8]): 2.71 ×10⁴ L/mol
- MIC (Saccharomyces cerevisiae): 128 µg/mL (≈ 277 µM)
- MIC (Staphylococcus aureus [9]): 4 µg/mL (≈ 8.66 µM)
